The results in this text go back to US20230102554A1 (GB002, INC., priority 2019, published 2023).

Assay [1] concerns the target T1, Human PDGFRβ, cytoplasmic domain (GST-PDGFRβ) (Homo sapiens, UniProt P09619).
T1 construct: made in house
As to the kind of experiment: Human PDGFRβ biochemical inhibition assay (off-chip Mobility Shift Assay). The essentials: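 GST-tagged cytoplasmic domain (aa 557-1106) from baculovirus was incubated 1 h at room temperature with compound, CSKtide, ATP at Km and Mg²⁺ in HEPES buffer, pH 7.5. Phosphorylated and unphosphorylated peptide were separated by off-chip mobility shift, and the product ratio P/(P+S) gave percent inhibition.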

For assay [2], the target named is T2, Human PDGFRα, cytoplasmic domain (GST-PDGFRα) (Homo sapiens, UniProt P16234).
T2 construct: made in house
T2 sequence (P16234 550-1089 T674I): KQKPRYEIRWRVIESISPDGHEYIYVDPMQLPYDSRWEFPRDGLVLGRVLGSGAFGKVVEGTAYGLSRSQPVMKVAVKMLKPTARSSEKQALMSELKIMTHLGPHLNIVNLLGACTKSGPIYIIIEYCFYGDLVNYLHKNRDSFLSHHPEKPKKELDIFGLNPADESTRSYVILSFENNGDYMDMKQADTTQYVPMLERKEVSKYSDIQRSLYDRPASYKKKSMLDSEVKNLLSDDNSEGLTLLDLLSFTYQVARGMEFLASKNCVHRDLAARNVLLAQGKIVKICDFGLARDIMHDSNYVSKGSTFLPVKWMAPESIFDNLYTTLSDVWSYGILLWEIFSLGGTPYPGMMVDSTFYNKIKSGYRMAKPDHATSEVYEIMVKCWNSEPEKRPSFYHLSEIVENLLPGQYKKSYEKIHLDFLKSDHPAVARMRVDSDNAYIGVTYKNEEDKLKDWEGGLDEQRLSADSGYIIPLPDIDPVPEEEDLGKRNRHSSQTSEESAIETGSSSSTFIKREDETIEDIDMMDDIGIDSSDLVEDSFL
Description: Human PDGFRα biochemical inhibition assay (off-chip Mobility Shift Assay).

T1 sequence (P09619 with tags, fused parts or gaps): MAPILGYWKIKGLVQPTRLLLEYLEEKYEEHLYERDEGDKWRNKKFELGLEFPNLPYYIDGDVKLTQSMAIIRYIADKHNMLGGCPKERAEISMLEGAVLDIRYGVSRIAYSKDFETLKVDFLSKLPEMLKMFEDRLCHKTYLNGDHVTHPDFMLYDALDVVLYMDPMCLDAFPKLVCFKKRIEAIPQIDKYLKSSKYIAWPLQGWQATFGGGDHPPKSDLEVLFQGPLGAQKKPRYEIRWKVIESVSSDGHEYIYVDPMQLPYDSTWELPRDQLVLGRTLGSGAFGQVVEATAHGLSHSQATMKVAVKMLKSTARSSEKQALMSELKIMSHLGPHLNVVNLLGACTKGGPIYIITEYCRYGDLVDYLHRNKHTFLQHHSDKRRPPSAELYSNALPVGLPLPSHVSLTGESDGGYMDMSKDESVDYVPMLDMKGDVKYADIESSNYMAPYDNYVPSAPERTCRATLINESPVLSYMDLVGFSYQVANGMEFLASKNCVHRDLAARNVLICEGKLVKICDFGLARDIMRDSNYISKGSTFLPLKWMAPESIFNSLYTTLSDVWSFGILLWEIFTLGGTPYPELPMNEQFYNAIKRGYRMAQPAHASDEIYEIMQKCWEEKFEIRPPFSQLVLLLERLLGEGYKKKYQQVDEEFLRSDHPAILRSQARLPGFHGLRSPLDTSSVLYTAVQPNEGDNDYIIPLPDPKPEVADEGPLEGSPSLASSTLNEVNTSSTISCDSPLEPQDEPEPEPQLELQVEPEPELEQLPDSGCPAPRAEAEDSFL

In general, IC50 refers to the concentration at which inhibition is half-maximal. With `CCn1cc2ncc(N[C@@H](C)c3cccc(NC(=O)Cc4cc(Cl)ccn4)c3)nc2n1` [Compound 676, (S)-2-(4-chloropyridin-2-yl)-N-(3-(1-((2-ethyl-2H-pyrazolo[3,4-b]pyrazin-6-yl)amino)ethyl)phenyl)acetamide], the figures for the IC50 in assay [1] and in assay [2] were not below 1000 nM and 300 to 1000 nM, respectively.

For the compound `CCn1cc2ncc(N[C@@H](C)c3cccc(NC(=O)c4cnc(N5CCCC5)c(C)c4)c3)nc2n1` [Compound 323, (S)-N-(3-(1-((2-ethyl-2H-pyrazolo[3,4-b]pyrazin-6-yl)amino)ethyl)phenyl)-5-methyl-6-(pyrrolidin-1-yl)nicotinamide], the IC50 in assay [1] and in assay [2] was less than 300 nM in each case.

As to `C[C@H](Nc1cnc2[nH]ccc2n1)c1cc(NC(=O)c2ccc(C3CC3)nc2)ccc1F` [Compound 599, (S)-N-(3-(1-((5H-pyrrolo[2,3-b]pyrazin-2-yl)amino)ethyl)-4-fluorophenyl)-6-cyclopropylnicotinamide], the IC50 in assay [1] and in assay [2] was less than 300 nM in each case.

As for `CCn1cc2ncc(N[C@@H](C)c3cccc(NC(=O)Cc4ccc(C)c(C)n4)c3)nc2n1` [Compound 716, (S)-2-(5,6-dimethylpyridin-2-yl)-N-(3-(1-((2-ethyl-2H-pyrazolo[3,4-b]pyrazin-6-yl)amino)ethyl)phenyl)acetamide], the IC50 is not below 1000 nM in assay [1] and less than 300 nM in assay [2].

As for `CCn1cc2ncc(N[C@@H](C)c3cccc(NC(=O)c4cnc(OC(C)C)c(Cl)c4)c3)nc2n1` [Compound 354, (S)-5-chloro-N-(3-(1-((2-ethyl-2H-pyrazolo[3,4-b]pyrazin-6-yl)amino)ethyl)phenyl)-6-isopropoxynicotinamide], the IC50 in assay [1] and in assay [2] was less than 300 nM each time.

Regarding `CCn1cc2ncc(N[C@@H](C)c3cccc(NC(=O)c4ccc(CN5CCCC5)c(Cl)c4)c3)nc2n1` [Compound 418, (S)-3-chloro-N-(3-(1-((2-ethyl-2H-pyrazolo[3,4-b]pyrazin-6-yl)amino)ethyl)phenyl)-4-(pyrrolidin-1-ylmethyl) benzamide], the IC50 in assay [1] and in assay [2] was less than 300 nM in each case.

In the case of `CCn1cc2ncc(N[C@@H](C)c3cc(NC(=O)Cc4cnc(C)c(F)c4)ccc3F)nc2n1` [Compound 706, (S)-N-(3-(1-((2-ethyl-2H-pyrazolo[3,4-b]pyrazin-6-yl)amino)ethyl)-4-fluorophenyl)-2-(5-fluoro-6-methylpyridin-3-yl) acetamide], the IC50 is not below 1000 nM in assay [1] and less than 300 nM in assay [2].

Regarding `CCn1cc2ncc(N[C@@H](C)c3cccc(NC(=O)Cc4ccc(F)cc4)c3)nc2n1` [Compound 638, (S)-N-(3-(1-((2-ethyl-2H-pyrazolo[3,4-b]pyrazin-6-yl)amino)ethyl)phenyl)-2-(4-fluorophenyl)acetamide], the IC50 in assay [1] and in assay [2] was less than 300 nM each time.

On to `CCn1cc2ncc(N[C@@H](C)c3cc(NC(=O)Cc4cncc(F)c4)ccc3C)nc2n1` [Compound 659, (S)-N-(3-(1-((2-ethyl-2H-pyrazolo[3,4-b]pyrazin-6-yl)amino)ethyl)-4-methylphenyl)-2-(5-fluoropyridin-3-yl) acetamide], for which the IC50 in assay [1] and in assay [2] was less than 300 nM throughout.

As to `CNc1ncc(C(=O)Nc2cccc([C@H](C)Nc3cnc4[nH]cc(-c5cnn(C)c5)c4n3)c2)cc1C` [Compound 587, (S)-5-methyl-N-(3-(1-((7-(1-methyl-1H-pyrazol-4-yl)-5H-pyrrolo[2,3-b]pyrazin-2-yl)amino)ethyl)phenyl)-6-(methylamino)nicotinamide], the IC50 in assay [1] and in assay [2] was less than 300 nM in each case.

Consider `CCn1cc2ncc(N[C@@H](C)c3cccc(NC(=O)c4ccc(CN5CC6CC6C5)c(C)c4)c3)nc2n1` (stereo partly drawn) [Compound 477, 4-((3-azabicyclo[3.1.0]hexan-3-yl)methyl)-N-(3-((5)-1-((2-ethyl-2H-pyrazolo[3,4-b]pyrazin-6-yl)amino)ethyl)phenyl)-3-methylbenzamide], for which the IC50 in assay [1] and in assay [2] was less than 300 nM throughout.

Regarding `Cc1cc(C(=O)Nc2cccc([C@H](C)Nc3cnc4cnn(C)c4n3)c2)cnc1CN1CCSCC1` [Compound 244, (S)-5-methyl-N-(3-(1-((1-methyl-1H-pyrazolo[3,4-b]pyrazin-6-yl)amino)ethyl)phenyl)-6-(thiomorpholinomethyl) nicotinamide], the 50% inhibitory concentration (IC50) in assay [1] and in assay [2] was less than 300 nM in each case.

For `CCn1cc2ncc(N[C@@H](C)c3cccc(NC(=O)c4cnc(N5CCN(C)CC5)c(Cl)c4)c3)nc2n1` [Compound 421, (S)-5-chloro-N-(3-(1-((2-ethyl-2H-pyrazolo[3,4-b]pyrazin-6-yl)amino)ethyl)phenyl)-6-(4-methylpiperazin-1-yl) nicotinamide], the IC50 in assay [1] and in assay [2] was less than 300 nM each time.

For the compound `CCn1cc2ncc(N[C@@H](C)c3cc(NC(=O)Cc4ccc(C(C)(C)F)cn4)ccc3F)nc2n1` [Compound 683, (S)-N-(3-(1-((2-ethyl-2H-pyrazolo[3,4-b]pyrazin-6-yl)amino)ethyl)-4-fluorophenyl)-2-(5-(2-fluoropropan-2-yl)pyridin-2-yl)acetamide], the IC50 in assay [1] is not below 1000 nM; in assay [2], 300 to 1000 nM.

Consider `CCn1cc2ncc(N[C@@H](C)c3cccc(NC(=O)c4ccc(Cl)s4)c3)nc2n1` [Compound 293, (S)-5-chloro-N-(3-(1-((2-ethyl-2H-pyrazolo[3,4-b]pyrazin-6-yl)amino)ethyl)phenyl)thiophene-2-carboxamide], for which the IC50 in assay [1] and in assay [2] was less than 300 nM each time.

For the compound `Cc1cncc(C(=O)Nc2cccc([C@H](C)Nc3cnc4cc(F)c(F)cc4c3)c2)c1` [Compound 30, (S)-N-(3-(1-((6,7-difluoroquinolin-3-yl)amino)ethyl)phenyl)-5-methylnicotinamide], the results for the IC50 in assay [1] and in assay [2] were 300 to 1000 nM and less than 300 nM, respectively.

On to `Cc1n[nH]c2ncc(N[C@@H](C)c3cccc(NC(=O)c4cncc(Cl)c4)c3)nc12` [Compound 533, (S)-5-chloro-N-(3-(1-((3-methyl-1H-pyrazolo[3,4-b]pyrazin-5-yl)amino)ethyl)phenyl)nicotinamide], for which the IC50 in assay [1] and in assay [2] was less than 300 nM throughout.

With `C[C@H](Nc1cnc2cnn(C)c2n1)c1cccc(NC(=O)c2cncc(Cl)c2)c1` [Compound 109, (S)-5-chloro-N-(3-(1-((1-methyl-1H-pyrazolo[3,4-b]pyrazin-6-yl)amino)ethyl)phenyl)nicotinamide], the IC50 in assay [1] and in assay [2] was less than 300 nM in each case.

Regarding `CCc1cc2ncc(N[C@@H](C)c3cc(NC(=O)c4ccc(C(F)(F)F)nc4)ccc3F)nc2s1` [Compound 620, (S)-N-(3-(1-((6-ethylthieno[2,3-b]pyrazin-3-yl)amino)ethyl)-4-fluorophenyl)-6-(trifluoromethyl)nicotinamide], the IC50 in assay [1] and in assay [2] was less than 300 nM throughout.

`Cc1cncc(C(=O)Nc2cccc([C@H](C)Nc3cnc4[nH]nc(Cl)c4n3)c2)c1` [Compound 550, (S)-N-(3-(1-((3-chloro-1H-pyrazolo[3,4-b]pyrazin-5-yl)amino)ethyl)phenyl)-5-methylnicotinamide]: the IC50 in assay [1] and in assay [2] was less than 300 nM each time.

On to `CCn1cc2ncc(N[C@@H](C)c3cccc(NC(=O)Nc4cnn(C(C)C)c4)c3)nc2n1` [Compound 733, (S)-1-(3-(1-((2-ethyl-2H-pyrazolo[3,4-b]pyrazin-6-yl)amino)ethyl)phenyl)-3-(1-isopropyl-1H-pyrazol-4-yl)urea], for which the figures for the IC50 in assay [1] and in assay [2] were 300 to 1000 nM and less than 300 nM, respectively.

In the case of `CCn1cc2ncc(N[C@@H](C)c3cc(NC(=O)c4ccc(CN5CCOCC5)c(C)c4)ccc3F)nc2n1` [Compound 446, (S)-N-(3-(1-((2-ethyl-2H-pyrazolo[3,4-b]pyrazin-6-yl)amino)ethyl)-4-fluorophenyl)-3-methyl-4-(morpholinomethyl) benzamide], the IC50 in assay [1] and in assay [2] was less than 300 nM in each case.

`CCn1cc2ncc(N[C@@H](C)c3cccc(NC(=O)Nc4cnc(C5CC5)c(C)c4)c3)nc2n1` [Compound 734, (S)-1-(6-cyclopropyl-5-methylpyridin-3-yl)-3-(3-(1-((2-ethyl-2H-pyrazolo[3,4-b]pyrazin-6-yl)amino)ethyl)phenyl)urea]: the IC50 in assay [1] and in assay [2] was less than 300 nM each time.

As for `CCn1cc2ncc(N[C@@H](C)c3cccc(NC(=O)c4cnc(CN5CC6(COC6)C5)c(F)c4)c3)nc2n1` [Compound 500, (S)-6-((2-oxa-6-azaspiro[3.3]heptan-6-yl)methyl)-N-(3-(1-((2-ethyl-2H-pyrazolo[3,4-b]pyrazin-6-yl)amino)ethyl)phenyl)-5-fluoronicotinamide], the IC50 in assay [1] and in assay [2] was not below 1000 nM each time.

Regarding `C[C@H](Nc1cnc2cnn(C)c2n1)c1cccc(NC(=O)c2cnc(C(F)F)s2)c1` [Compound 141, (S)-2-(difluoromethyl)-N-(3-(1-((1-methyl-1H-pyrazolo[3,4-b]pyrazin-6-yl)amino)ethyl)phenyl)thiazole-5-carboxamide], the IC50 in assay [1] and in assay [2] was less than 300 nM throughout.

Take `Cc1cc(C(=O)Nc2cccc([C@H](C)Nc3cnc4cnn(C)c4n3)c2)ccc1CN1CCSCC1` [Compound 237, (S)-3-methyl-N-(3-(1-((1-methyl-1H-pyrazolo[3,4-b]pyrazin-6-yl)amino)ethyl)phenyl)-4-(thiomorpholinomethyl) benzamide]: the IC50 in assay [1] and in assay [2] was less than 300 nM in each case.

`C=Cc1ncc(C(=O)Nc2cccc([C@H](C)Nc3cnc4cnn(C)c4n3)c2)cc1C` [Compound 245, (S)-5-methyl-N-(3-(1-((1-methyl-1H-pyrazolo[3,4-b]pyrazin-6-yl)amino)ethyl)phenyl)-6-vinylnicotinamide]: the IC50 in assay [1] and in assay [2] was less than 300 nM in each case.
